These results are taken from the Deep4Chem optical property database.

A short description of this data set: solvent given as SMILES.

As to `CCCCCCOc1ccc(N(c2ccc(OCCCCCC)cc2)c2ccc(-c3sc(-c4ccc(N(c5ccc(OCCCCCC)cc5)c5ccc(OCCCCCC)cc5)cc4)c4nc(-c5ccccc5)c(-c5ccccc5)nc34)cc2)cc1`, the absorption maximum is listed as 601 nm (in C1CCOC1); 592 nm (in CC(C)=O); 594 nm (in CCOC(C)=O); 600 nm (in CCOCC); 598 nm (in CN(C)C=O); 600 nm (in Cc1ccccc1). In addition, the absorption maximum was 601 nm (in ClC(Cl)Cl) and 600 nm (in ClCCl).
Take `O=S(=O)(c1ccc(N(c2ccccc2)c2ccccc2)cc1)c1ccc(S(=O)(=O)c2ccc(N(c3ccccc3)c3ccccc3)cc2)cc1`: the absorption maximum (in Cc1ccccc1) was 354 nm.
`CN(C)c1ccc(C#Cc2nc(-c3ccccc3)nc3ccccc23)cc1` displayed an absorption maximum (in ClCCl) of 414 nm.
In the case of `CC(C)(C)c1ccc2c(c1)c1cc(C(C)(C)C)ccc1n2-c1ccc(-c2nc3c(C#N)ccc(C#N)c3nc2-c2ccc(-n3c4ccc(C(C)(C)C)cc4c4cc(C(C)(C)C)ccc43)cc2)cc1`, the absorption maximum (in Cc1ccccc1) was 467 nm.
As for `CCCCC(CC)Cn1c2cc(C#N)ccc2c2ccc(C#Cc3cc(C#Cc4ccc5c6ccc(C#N)cc6n(CC(CC)CCCC)c5c4)c4ccc5c(C#Cc6ccc7c8ccc(C#N)cc8n(CC(CC)CCCC)c7c6)cc(C#Cc6ccc7c8ccc(C#N)cc8n(CC(CC)CCCC)c7c6)c6ccc3c4c65)cc21` (stereo unspecified), under “in ClCCl”, the absorption maximum is recorded as 467 nm.
Compound `N#CC1=C(c2ccc(-c3cccs3)s2)CC1` had an absorption maximum (in C1CCOC1) of 366 nm; an absorption maximum (in CC#N) of 364 nm; an absorption maximum (in CCCCCC) of 361 nm; an absorption maximum (in CCO) of 367 nm; an absorption maximum (in OCCOCCO) of 371 nm; an absorption maximum (in c1ccncc1) of 372 nm.
Consider `CCN(CC)c1ccc(/C=N/C(C#N)=C(C#N)/N=C/c2ccc(N(CC)CC)cc2O)c(O)c1`, for which the absorption maximum worked out at 565 nm (in CC#N), 571 nm (in CN(C)C=O) and 570 nm (in ClCCl).
`CN(C)c1ccc(C#Cc2cc(C#Cc3ccc(N(C)C)cc3)c3ccc4c(C#Cc5ccc(C(F)(F)F)cc5)cc(C#Cc5ccc(N(C)C)cc5)c5ccc2c3c54)cc1`: where the note is “in ClCCl”, the absorption maximum is 506 nm.
On to `CCCCCCc1cc2/c(=C(\C#N)C(=O)OC)s/c(=c3/s/c(=C(/C#N)C(=O)OC)c4cc(CCCCCC)sc34)c2s1`, for which the absorption maximum (in Cc1ccccc1) was 580 nm.
`CN(C)c1ccc(C#CC2=C3CCc4ccccc4C3=[O+][B-](F)(F)O2)cc1` yielded an absorption maximum (in ClCCl) of 514 nm.
`CC(C)(C)OC(=O)COc1ccc2c(c1)oc(=O)c1c(=O)oc3ccccc3c12` came in with an absorption maximum (in CS(C)=O) of 366 nm and an absorption maximum (in ClCCl) of 365 nm.
Take `Oc1ccccc1-c1nc(-c2ccccc2)c2ccccn12`: the absorption maximum amounted to 340 nm (in C1CCCCC1); 343 nm (in CC#N); 299 nm (in CO); 345 nm (in ClCCl); 299 nm (in O).
On to `FC(F)(F)C(F)(F)C(F)(F)C1=NC2=C(c3ccccc3)C=C3c4cc(-c5ccccc5)c5nc(C(F)(F)C(F)(F)C(F)(F)F)nc6c(-c7ccccc7)cc(c4c56)=C4C=C(c5ccccc5)C(=N1)C2C34` (stereo unspecified), for which, under “in C1CCOC1”, the absorption maximum was found to be 500 nm.
Take `COC(=O)c1cc(=O)n(Cc2ccccc2)c2cc(-c3ccc(OC)cc3)sc12`: the absorption maximum runs as follows: (in CC#N) 400 nm; (in ClCCl) 404 nm.
Take `CN(C)c1ccc(/C=C/c2cc[n+](CCC[n+]3ccc(/C=C/c4ccc(N(C)C)cc4)cc3)cc2)cc1`: the absorption maximum reads like this: (in CC1COC(=O)O1) 485 nm; (in CC#N) 488 nm; (in CC(C)=O) 484 nm; (in CC(C)O) 499 nm; (in CCO) 500 nm; (in CN(C)C=O) 485 nm. Also, the absorption maximum by setting is: (in CO) 494 nm; (in CS(C)=O) 485 nm; (in ClC(Cl)Cl) 501 nm; (in O) 466 nm; (in c1ccncc1) 498 nm.
Compound `CN1C2=Nc3n(C)c4ccccc4[n+]3CN2c2ccccc21` registered an absorption maximum (in CO) of 339 nm.
On to `COC(=O)CN1C(=O)c2cc3ccc(N(C)C)cc3cc2C1=O`, for which the absorption maximum runs as follows: (in C1CCOC1) 373 nm; (in CC#N) 380 nm; (in CC(C)=O) 375 nm; (in CCO) 379 nm; (in Cc1ccccc1) 373 nm; (in ClC(Cl)Cl) 380 nm.
`CCn1c2sccc2c2c3nsnc3c3c4ccsc4n(CC)c3c21`: the absorption maximum is reported as 424 nm (in C1CCOC1); 422 nm (in CCOC(C)=O); 430 nm (in CN(C)C=O); 423 nm (in Cc1ccccc1); 425 nm (in ClCCl).
With `c1ccc(-c2oc(-c3ccccc3)c3ccccc23)cc1`, the absorption maximum worked out at 411 nm (in C1CCCCC1); 413 nm (in C1CCOC1); 411 nm (in CC#N); 411 nm (in CCO); 415 nm (in CN(C)C=O); 416 nm (in CS(C)=O). Moreover, the absorption maximum (in Cc1ccccc1) is reported as 414 nm.
On to `COC(=O)c1c2ccccc2nc2ccccc12`, for which the absorption maximum was found to be 361 nm (in C1CCOC1); 361 nm (in C1COCCO1); 360 nm (in CC#N); 361 nm (in CCCCCO); 360 nm (in CCCCO); 361 nm (in CCCO). Further, the absorption maximum by setting is: (in CCO) 360 nm; (in CO) 360 nm; (in COCCOC) 361 nm; (in ClC(Cl)Cl) 361 nm; (in ClCCl) 361 nm; (in OCCO) 361 nm.
For the setting “in ClCCl”, `O=C(c1ccc2c3c(cccc13)-c1cccc3c1C2CC=C3)c1c(CCc2ccccc2)c2ccc3cccc4c5cccc6ccc1c(c65)c2c34` (stereo unspecified) returned an absorption maximum of 470 nm.
Regarding `CCCCCCCCOc1cc(/C=C/c2ccncc2)c(OCCCCCCCC)cc1/C=C/c1ccncc1`, where the note is “in ClCCl”, the absorption maximum turned out to be 398 nm.
`O=C1c2ccccc2C2=Nc3cccc[n+]3[B-](F)(F)N12` displayed an absorption maximum (in ClCCl) of 361 nm.
`F[B-]1(F)n2c(c3cccc4cccc2c43)=Nc2cccc[n+]21` gave an absorption maximum (in C1CCOC1) of 468 nm; an absorption maximum (in CC#N) of 460 nm; an absorption maximum (in CCCCCC) of 473 nm; an absorption maximum (in Cc1ccccc1) of 472 nm; an absorption maximum (in ClCCl) of 438 nm.
The compound `O=P1(c2ccccc2)c2cccc3ccc4ccc1n4c23` (stereo unspecified) had an absorption maximum (in ClCCl) of 412 nm.
On to `CC(C)(C)c1ccc2c(c1)c1cc(C(C)(C)C)ccc1n2-c1ccc2oc3nc4oc5cc(C(F)(F)F)ccc5c4cc3c2c1`, for which, under “in ClC(Cl)Cl”, the absorption maximum came out at 346 nm.
`C[n+]1cc2ccc3c[n+](C)cc4ccc(c1)c2c34` returned an absorption maximum (in CC#N) of 418 nm.
In the case of `CCCCCCCCN1c2ccc(C#Cc3ccc(F)cc3)cc2Sc2cc(C=O)ccc21`, the absorption maximum was 378 nm (in C1CCOC1); 380.01 nm (in CC#N); 376 nm (in CCCCCC); 350 nm (in CO); 388 nm (in CS(C)=O); 381.99 nm (in Cc1ccccc1). This compound displayed an absorption maximum (in ClC(Cl)Cl) of 391.99 nm.
In turn, `CC1(C)c2ccccc2N(c2ccc(-c3ccc4c(c3)c3cc(-c5ccc(N6c7ccccc7C(C)(C)c7ccccc76)cc5)ccc3c3nc(C#N)c(C#N)nc43)cc2)c2ccccc21` displayed an absorption maximum (in Cc1ccccc1) of 405 nm.
Regarding `C(#Cc1ccc(C#Cc2ccc(C#Cc3ccccc3)cc2)cc1)c1ccccc1`, the absorption maximum (in ClC(Cl)Cl) is reported as 345 nm.
With `CC1=C(c2cccs2)C(C)=[N+]2C1=C(c1ccc(OS(=O)(=O)c3ccc([N+](=O)[O-])cc3[N+](=O)[O-])cc1)c1c(C)c(-c3cccs3)c(C)n1[B-]2(F)F`, the absorption maximum is, setting by setting: (in CO) 526 nm; (in Cc1ccccc1) 535 nm; (in ClCCl) 533 nm.
Compound `CC(C)=N[O-]` yielded an absorption maximum (in CCO) of 265 nm.
With `CN(C)c1ccc(C2=Nc3scc(-c4ccc([N+](=O)[O-])cc4)[n+]3[B-](F)(F)O2)cc1`, the absorption maximum turned out to be 412 nm (in C1CCOC1), 411 nm (in CC#N), 415 nm (in Cc1ccccc1) and 417 nm (in ClCCl).
Turning to `Cc1cc(C)c(B(c2c(C)cc(C)cc2C)c2cc3cc(N(C)C)c4ccccc4c3c3c2ccc2ccccc23)c(C)c1`, the absorption maximum by setting is: (in C1CCCCC1) 430 nm; (in C1CCOC1) 431 nm; (in CC#N) 429 nm; (in ClC(Cl)Cl) 431 nm; (in c1ccccc1) 433 nm.
With `Cn1c(=O)c(/N=N/c2ccc(S(=O)(=O)O)c3ccccc23)c(O)c2ccccc21`, the absorption maximum is, setting by setting: (in C1CCOC1) 467 nm; (in CC(C)=O) 465 nm; (in CCOC(C)=O) 464 nm; (in CO) 468 nm; (in CS(C)=O) 470 nm; (in Cc1ccccc1) 469 nm. The absorption maximum (in ClCCl) turned out to be 467 nm and the absorption maximum (in O) was determined as 456 nm.
As to `c1ccc(-c2nc(-c3ccccc3)nc(-c3ccc(-n4c5ccccc5c5cc(-c6ccc7oc8ccccc8c7c6)ccc54)cc3)n2)cc1`, where the note is “in Cc1ccccc1”, the absorption maximum is on record as 370 nm.
For the setting “in Cc1ccccc1”, `CC(C)(C)c1ccc2c(c1)c1cc(C(C)(C)C)ccc1n2-c1cc[n+]2c(c1)-c1ccccc1O[B-]2(F)F` displayed an absorption maximum of 375 nm.
For `CCCCC(CC)COc1ccc2nc(-c3ccc(-c4ccccc4)s3)sc2c1` (stereo unspecified), under “in ClCCl”, the absorption maximum is reported as 368 nm.
Consider `C[Si]1(C)c2ccccc2-c2ccccc21`, for which the absorption maximum (in ClCCl) is reported as 336 nm.
